Literature values, collected in patent US20230022721A1, “COMPOSITIONS AND METHODS FOR INHIBITION AND INTERRUPTION OF BIOFILM FORMATION” (DENTSPLY SIRONA Inc., priority 2016, published 2023).

Assays:
[1] = tested on: Fungi: C. albicans; A. niger
[2] = tested on: Bacteria: E. coli; S. aureus; S. typhimurium
[3] = tested on: Bacteria: Gram-positive bacteria; conditions: vs model compound
[4] = tested on: Bacteria: S. aureus; P. aeruginosa; E. coli
[5] = tested on: Bacteria: P. aeruginosa; Staphylococcus spp.

In the case of `Cc1cc(NS(=O)(=O)c2ccc(N3C(=O)C=CC3=O)cc2)no1`, the “Comparison of Polymers with Monomer” value [1] is given as “The homopolymer is more effective than the monomer at all concentrations.^[6]”.
In the case of `C=CC(=O)Oc1ccc(Cl)c2cccnc12`, the “Comparison of Polymers with Monomer” value [2] is listed as “The homopolymer and the copolymers with acrylamide are both less effective than the monomer.^[13]”.
In the case of `C=Cc1ccc(C[S+]2CCCC2)cc1`, the “Comparison of Polymers with Monomer” value [3] is listed as “The homopolymer is more effective than the corresponding model compound (p- ethylbenzyl tetramethylene sulforium tetrafluoroborate)”.
In the case of `C=C(C)C(=O)OCC(O)CSc1nnc(C)s1` (centres unmarked), the “Comparison of Polymers with Monomer” value [4] is given as “The homopolymer is more effective than the monomer.^[8]”.
In the case of `C=CC(=O)Oc1cc(Cl)ccc1Oc1ccc(Cl)cc1Cl`, the “Comparison of Polymers with Monomer” value [5] is given as “The homopolymer and copolymers with methyl methacrylate, styrene are all less effective than the monomer.^[10]”.
